Results reported in patent US9702824B2, “pH sensors” (PROMEGA CORPORATION, priority 2012, dated 2017).

Legend:
[1] = Fluorescence excitation and emission spectra of pH sensor agents; assay type: physicochemical
Protocol: Experiments were conducted during development of embodiments of the present invention to determine the fluorescence characteristics of exemplary pH sensor agents PBI-4453 and PBI-4479 (SEE FIG. 1). Fluorescence excitation and emission intensities were measured at a range of wavelengths (SEE FIG. 2). […] Fluorescence detection was performed at a range of pH values (SEE FIG. 3).

wild-type U2-OS cells = test: Toxicity of HaloTag pH sensors, CELLTITER Glo Cell Viability Assay (Example 9); assay type: cell-based; conditions: 0-10 uM, overnight
Protocol: U2-OS cells were plated at 10,000 cells/well into wells of 96-well plates and incubated overnight. The next day, 0-10 uM (serially diluted 1:2) PBI-4959, PBI-5004 or PBI-4479 was added to the cells and again incubated overnight. After incubation, the media containing the HaloTag® pH sensors was removed, and 100 ul of fresh media (McCoy's 5A+10% FBS) was added. Cell viability was determined using the CELLTITER Glo Cell Viability Assay according to the manufacturer's protocol (Promega Corporation). Luminescence was read on a GloMAX®-Multi luminometer.

U2-OS HaloTag-EDG1 cells = target: T1, U2-OS HaloTag-EDG1 cells (Homo sapiens, UniProt P21453); test: Detection of internalization using an impermeable pH sensor (Example 13); assay type: cell-based; conditions: 500 nM sensor, with 1 uM S1P
T1 construct: host or cells: U2-OS HaloTag-EDG1 cells
T1 sequence (P21453 with tags, fused parts or gaps): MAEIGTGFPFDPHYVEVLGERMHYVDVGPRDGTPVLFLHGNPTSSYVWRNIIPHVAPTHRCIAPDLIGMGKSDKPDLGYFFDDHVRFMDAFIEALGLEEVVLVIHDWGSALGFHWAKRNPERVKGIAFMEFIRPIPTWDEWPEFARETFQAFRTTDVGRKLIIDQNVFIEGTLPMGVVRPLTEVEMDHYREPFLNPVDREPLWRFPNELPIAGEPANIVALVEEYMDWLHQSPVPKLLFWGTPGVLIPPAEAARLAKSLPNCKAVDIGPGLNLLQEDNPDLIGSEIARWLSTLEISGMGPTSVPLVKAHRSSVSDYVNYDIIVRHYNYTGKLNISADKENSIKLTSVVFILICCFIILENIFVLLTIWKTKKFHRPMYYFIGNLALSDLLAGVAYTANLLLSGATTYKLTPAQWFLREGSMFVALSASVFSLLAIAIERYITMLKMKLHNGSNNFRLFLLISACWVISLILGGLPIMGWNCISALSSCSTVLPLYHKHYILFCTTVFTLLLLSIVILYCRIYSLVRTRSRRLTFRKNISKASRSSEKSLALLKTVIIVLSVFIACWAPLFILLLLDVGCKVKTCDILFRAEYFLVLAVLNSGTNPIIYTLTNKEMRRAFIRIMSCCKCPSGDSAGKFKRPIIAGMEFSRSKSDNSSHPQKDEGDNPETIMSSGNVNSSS
Protocol: The next day, the media was replaced with McCoy's 5A+0.5% cFBS and incubated overnight at 37° C./5% CO2. […] 1 uM S1P (Sphingosine-1-Phosphate) or carrier (DMSO) was then added to the cells, and images were acquired sequentially on Olympus FV500 at 37° C./5% CO2.

[2] = tested on: U2-OS NLS cells (U2-OS cells stably expressing a HaloTag protein with a nuclear localization sequence); test: Permeability, pulse with sensor and chase with Oregon Green (Example 4); assay type: cell-based; conditions: 0-20 uM pulse for 1 hour
Protocol: Experiments were conducted during development of embodiments of the present invention to determine the permeability and specificity of the pH sensor. U2-OS cells (for specificity) and U2-OS NLS cells (U2-OS cells stably expressing a HaloTag protein with a nuclear localization sequence (NLS); for permeability) were treated with the PBI-4479 sensor. Cells were plated at 40,000 cells/well in 200 ul McCoy's 5A media+10% FBS (“complete media”) onto LTII chamber slides. The cells were then incubated overnight at 37° C., 5% CO2. The cells were then pulsed with PBI-4479 from 0-20 uM for 1 hour. […] Cells were then imaged on an Olympus FV500.

[3] = tested on: IL6-HT7-EGFR (epidermal growth factor receptor) in U2-OS cells; test: Receptor internalization detection by imaging; assay type: cell-based; conditions: 1 uM sensor, stimulated with 1 ng/mL rhEGF, imaged for 1 hour
Protocol: (§1) Experiments were conducted during development of embodiments of the present invention to detect and monitor internalization/endocytosis. U2-OS cells expressing (either transiently or stably) a HaloTag (HT7)-Receptor fusion protein containing an IL6 signal sequence were used. The following HT7-receptor fusion proteins were expressed in the U2-OS cells: IL6-HT7-β2AR (β2 adrenergic receptor; NM_000024.3), IL6-HT7-EDG1 ([…]; NM_001400), IL6-HT7-DOR1 (δ-opioid receptor; NM 000911) and IL6-HT7-EGFR (epidermal growth factor receptor; AB528482). The cells were plated at 2×10^5 cells/mL in complete media into wells. The cells were then incubated overnight at 37° C., 5% CO2. The media was then replaced with 200 ul McCoy's 5A media with 0.5% charcoal-stripped FBS (Hyclone) and incubated for about 1 hour at 37° C., 5% CO2. The cells were then labeled with 1 uM pH sensor PBI-4479 and incubated for 10 minutes at 37° C., 5% CO2. The cells were then washed 3 times with 200 ul complete media to remove any unbound sensor. The cells were then stimulated with the respective agonist (1 uM Isoproterenol for IL6-HT7-β2AR, 1 uM S1P for IL6-HT7-EDG1, 1 uM SNC80 for IL6-HT7-DOR1, and 1 ng/mL rhEGF for IL6-HT7-EGFR) and imaged every 5 minutes for 1 hour on an Olympus FV500.

[4] = target: T2, IL6-HT7-DOR1 (δ-opioid receptor) in U2-OS cells (Homo sapiens, UniProt P41143); test: Receptor internalization detection by imaging; assay type: cell-based; conditions: 1 uM sensor, stimulated with 1 uM SNC80, imaged for 1 hour
T2 construct: expressed in transfected cells; host or cells: U2-OS
T2 sequence (P41143 with tags, fused parts or gaps): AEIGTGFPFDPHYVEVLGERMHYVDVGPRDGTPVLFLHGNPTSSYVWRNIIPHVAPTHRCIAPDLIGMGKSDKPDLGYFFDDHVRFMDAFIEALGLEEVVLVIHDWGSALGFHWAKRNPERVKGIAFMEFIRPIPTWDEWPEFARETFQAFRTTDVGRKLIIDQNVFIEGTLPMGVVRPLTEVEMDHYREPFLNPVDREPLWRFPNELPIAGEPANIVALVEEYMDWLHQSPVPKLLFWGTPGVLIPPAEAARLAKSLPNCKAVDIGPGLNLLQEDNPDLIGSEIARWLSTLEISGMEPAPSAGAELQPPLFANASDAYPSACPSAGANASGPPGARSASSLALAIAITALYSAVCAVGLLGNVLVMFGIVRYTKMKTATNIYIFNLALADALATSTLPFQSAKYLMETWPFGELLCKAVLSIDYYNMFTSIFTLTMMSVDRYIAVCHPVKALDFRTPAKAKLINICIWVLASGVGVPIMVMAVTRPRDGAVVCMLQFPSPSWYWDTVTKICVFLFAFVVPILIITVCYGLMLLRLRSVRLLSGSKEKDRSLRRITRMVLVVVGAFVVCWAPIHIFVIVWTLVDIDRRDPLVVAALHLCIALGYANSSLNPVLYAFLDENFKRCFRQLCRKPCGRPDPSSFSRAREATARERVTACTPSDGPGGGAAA
Protocol: as §1

O=C(NCCOCCOCCOCCOCCOCCOCCCCCCCl)c1ccc(C(=O)[O-])c(-c2c3ccc(=[N+]4CCN(CCCCS(=O)(=O)O)CC4)cc-3oc3cc(N4CCN(CCCCS(=O)(=O)O)CC4)ccc23)c1 [PBI-4479]
emission maximum [1]: 562 nm
excitation maximum [1]: 534 nm
toxicity (cell viability) (wild-type U2-OS cells): non-toxicity
detection of HaloTag-EDG1 internalization (U2-OS HaloTag-EDG1 cells): ability to detect internalization of HaloTag-EDG1
cell permeability (labeling of HaloTag-NLS) [2]: impermeable
detection of receptor internalization [3]: detection of HaloTag-EGFR internalization
detection of receptor internalization [4]: detection of HaloTag-DOR1 internalization
